Assay results: ChEMBL document CHEMBL1201862, “PubChem BioAssay data set” (2004)
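Step 1: Grow cells in 96-well plates. Step 2: Expose to compound for 48 hours at 5 concentrations. Step 3: Interpolate endpoints linearly; if unreached, use highest concentration. GI50 = concentration required for 50% inhibition of growth.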 Active and inactive are the calls of the source. No stated cut-off is given here; in the data, active = GI50 up to about 1.1 µM and inactive = higher.

Assays:
Test in all cases: inhibition of tumour cell growth, NCI panel, 48 h
PC-3 = test system: PC-3
DU-145 = test system: DU-145
ACHN = test system: ACHN
NCI/ADR-RES = test system: NCI/ADR-RES
T47D = test system: T47D
MDA-MB-231 = test system: MDA-MB-231
UO-31 = test system: UO-31
Hs-578T = test system: Hs-578T
SNB-75 = test system: SNB-75
TK-10 = test system: TK-10
HT-29 = test system: HT-29
SR = test system: SR
NCI-H522 = test system: NCI-H522
M19-MEL = test system: M19-MEL
KM-20L2 = test system: KM-20L2
SNB-78 = test system: SNB-78
DMS-273 = test system: DMS-273
DLD-1 = test system: DLD-1
XF498 = test system: XF498
HOP-18 = test system: HOP-18

SMILES	GI50 (PC-3)	GI50 (DU-145)	GI50 (ACHN)	GI50 (NCI/ADR-RES)	GI50 (T47D)	GI50 (MDA-MB-231)	GI50 (UO-31)	GI50 (Hs-578T)	GI50 (SNB-75)	GI50 (TK-10)	GI50 (HT-29)	GI50 (SR)	GI50 (NCI-H522)	GI50 (M19-MEL)	GI50 (KM-20L2)	GI50 (SNB-78)	GI50 (DMS-273)	GI50 (DLD-1)	GI50 (XF498)	GI50 (HOP-18)
CC(=O)Nc1ccc2[nH]c(C(=O)N3CC(CCl)c4c3cc(N)c3ccccc43)cc2c1 (stereo unspecified)	< 0.016 µM (active)	< 0.01 µM (active)	< 0.01 µM (active)	0.0182 µM (active)	< 0.0164 µM (active)	< 0.0237 µM (active)	0.014 µM (active)	< 0.01 µM (active)	< 0.01 µM (active)	< 0.0157 µM (active)	< 0.0127 µM (active)	< 0.01 µM (active)	< 0.01 µM (active)							
Nc1nc(-c2cccc([N+](=O)[O-])c2)cc(-c2cc(-c3cccc([N+](=O)[O-])c3)nc(N)n2)n1	> 100 µM (inactive)	> 100 µM (inactive)	> 100 µM (inactive)	> 100 µM (inactive)	> 100 µM (inactive)	> 100 µM (inactive)	> 100 µM (inactive)	> 100 µM (inactive)		> 100 µM (inactive)	> 100 µM (inactive)	> 100 µM (inactive)	> 100 µM (inactive)							
C=CCn1c(=O)c(Br)nn(CCOCP(=O)(OCC)OCC)c1=O	> 100 µM (inactive)	> 100 µM (inactive)	> 100 µM (inactive)	> 100 µM (inactive)	> 100 µM (inactive)	> 100 µM (inactive)	> 100 µM (inactive)	> 100 µM (inactive)	> 100 µM (inactive)			> 100 µM (inactive)	> 100 µM (inactive)							
NC(Cc1ccccc1)C(=O)N[C@H]1c2ccsc2/C(=N/O)[C@H]1O (stereo partly specified)	> 100 µM (inactive)	> 100 µM (inactive)		> 100 µM (inactive)	> 100 µM (inactive)	> 100 µM (inactive)	25.6 µM (inactive)			> 100 µM (inactive)	> 100 µM (inactive)	> 100 µM (inactive)								
NS(=O)(=O)C1CCCCC1C(=O)NNC(=O)C(=O)Nc1nnc(S)[nH]1 (stereo unspecified)			> 100 µM (inactive)				> 100 µM (inactive)		> 100 µM (inactive)	> 100 µM (inactive)	> 100 µM (inactive)	> 100 µM (inactive)	> 100 µM (inactive)	> 100 µM (inactive)	> 100 µM (inactive)	> 100 µM (inactive)	> 100 µM (inactive)	> 100 µM (inactive)	> 100 µM (inactive)	
COc1ccc(C(=O)Cc2ccc(Br)cc2)cc1OC			> 100 µM (inactive)				> 100 µM (inactive)		27.5 µM (inactive)	56 µM (inactive)	> 100 µM (inactive)	> 100 µM (inactive)	79.3 µM (inactive)	> 100 µM (inactive)	> 100 µM (inactive)	> 100 µM (inactive)	> 100 µM (inactive)	> 100 µM (inactive)	31.7 µM (inactive)	> 100 µM (inactive)
C/C(=N/NC(=S)N1CCCCCC1)c1ccccc1O	6.7 µM (inactive)	4.72 µM (inactive)	2.65 µM (inactive)	1.69 µM (inactive)	7.6 µM (inactive)	29.9 µM (inactive)	2.62 µM (inactive)	> 100 µM (inactive)	16.4 µM (inactive)	3.58 µM (inactive)	7.73 µM (inactive)	0.492 µM (active)	1.49 µM (inactive)							
S=c1sc2c(s1)SCCCCSCCCCSc1sc(=S)sc1SCCCCSCCCCS2	> 100 µM (inactive)	> 100 µM (inactive)	> 100 µM (inactive)	> 100 µM (inactive)	> 100 µM (inactive)	> 100 µM (inactive)	> 100 µM (inactive)	30.2 µM (inactive)	18.6 µM (inactive)	> 100 µM (inactive)	> 100 µM (inactive)	> 100 µM (inactive)	> 100 µM (inactive)							
CO/N=C1/c2sccc2[C@H](NC(=O)C(F)(F)F)[C@@H]1O	> 100 µM (inactive)	> 100 µM (inactive)		> 100 µM (inactive)	> 100 µM (inactive)	> 100 µM (inactive)	> 100 µM (inactive)	> 100 µM (inactive)	> 100 µM (inactive)	> 100 µM (inactive)	> 100 µM (inactive)	> 100 µM (inactive)								
Cc1ccc2c(=O)c3ccccc3sc2c1			> 100 µM (inactive)				> 100 µM (inactive)			> 100 µM (inactive)	77.3 µM (inactive)	79.4 µM (inactive)	> 100 µM (inactive)	> 100 µM (inactive)	> 100 µM (inactive)		> 100 µM (inactive)	> 100 µM (inactive)		6.19 µM (inactive)
COc1ccc(-c2c3ccccc3c(-c3ccc(OCCCCCBr)cc3)c3ccccc23)cc1			> 100 µM (inactive)				> 100 µM (inactive)			> 100 µM (inactive)	> 100 µM (inactive)	> 100 µM (inactive)	> 100 µM (inactive)	> 100 µM (inactive)	> 100 µM (inactive)		> 100 µM (inactive)	> 100 µM (inactive)		
O=C(N/N=C\c1cccc2ccccc12)Nc1ccccc1	> 100 µM (inactive)	> 100 µM (inactive)		> 100 µM (inactive)	> 100 µM (inactive)		> 100 µM (inactive)	> 100 µM (inactive)	> 100 µM (inactive)	> 100 µM (inactive)	> 100 µM (inactive)	> 100 µM (inactive)								
CN(C)[C@@H]1C(O)=C(C(=O)NCN2CCN(C(=N)NC(=N)N)CC2)C(=O)[C@@]2(O)C(O)=C3C(=O)c4c(O)cccc4[C@@](C)(O)[C@H]3C[C@@H]12			0.306 µM (active)				0.301 µM (active)		0.138 µM (active)	0.468 µM (active)	0.123 µM (active)	0.0406 µM (active)	0.0329 µM (active)	0.31 µM (active)	0.299 µM (active)	0.0698 µM (active)	0.252 µM (active)	0.0466 µM (active)	0.091 µM (active)	
Cc1ccc(S(=O)(=O)NCCCSCCSCCCN)cc1	> 100 µM (inactive)	> 100 µM (inactive)	> 100 µM (inactive)	> 100 µM (inactive)	> 100 µM (inactive)	> 100 µM (inactive)	> 100 µM (inactive)	> 100 µM (inactive)	> 100 µM (inactive)	> 100 µM (inactive)	> 100 µM (inactive)	> 100 µM (inactive)	> 100 µM (inactive)							
O=C1CCC(c2ccc(Cl)cc2)=NN1c1nsc2ccccc12			34.1 µM (inactive)				18 µM (inactive)		5.77 µM (inactive)	46.3 µM (inactive)	30.1 µM (inactive)	22.3 µM (inactive)		37.2 µM (inactive)	35.2 µM (inactive)	25.4 µM (inactive)	25.6 µM (inactive)			18.7 µM (inactive)
CCOC(=O)c1c(-c2ccc(Cl)cc2)c(C#N)c(=S)n(C2OC(CO)C(O)C(O)C2O)c1-c1ccccc1 (stereo unspecified)	19.9 µM (inactive)	27.2 µM (inactive)	35.6 µM (inactive)	46.9 µM (inactive)	23.2 µM (inactive)	31.2 µM (inactive)	38 µM (inactive)	24.2 µM (inactive)	27.9 µM (inactive)	33.8 µM (inactive)	17.9 µM (inactive)	33.1 µM (inactive)								
CCC1(C)C=Cc2c(cc(O)c3c(=O)c4ccccc4n(C)c23)O1 (stereo unspecified)	> 10 µM (inactive)	> 10 µM (inactive)	> 10 µM (inactive)	> 10 µM (inactive)	> 10 µM (inactive)	> 10 µM (inactive)	> 10 µM (inactive)	> 10 µM (inactive)	> 10 µM (inactive)	> 10 µM (inactive)	> 10 µM (inactive)		> 10 µM (inactive)							
Nc1cc[nH]c(=O)n1			> 100 µM (inactive)				> 100 µM (inactive)		> 100 µM (inactive)	> 100 µM (inactive)	> 100 µM (inactive)		> 100 µM (inactive)	> 100 µM (inactive)	> 100 µM (inactive)	> 100 µM (inactive)	> 100 µM (inactive)	> 100 µM (inactive)	> 100 µM (inactive)	> 100 µM (inactive)
CCCOC1OC(CS(=O)(=O)O)C(OC(C)=O)C(OC(C)=O)C1OC(C)=O (stereo unspecified)	> 100 µM (inactive)	> 100 µM (inactive)		> 100 µM (inactive)	> 100 µM (inactive)	> 100 µM (inactive)	> 100 µM (inactive)	> 100 µM (inactive)	> 100 µM (inactive)	> 100 µM (inactive)	> 100 µM (inactive)	> 100 µM (inactive)								
Cc1c2cc[n+](C)cc2c(C)c2c1[nH]c1ccccc12							15.8 µM (inactive)		0.193 µM (active)		5.83 µM (inactive)		0.869 µM (active)	0.984 µM (active)			1.5 µM (inactive)	1.68 µM (inactive)	0.548 µM (active)	2.82 µM (inactive)
O=C1N[C@@H]2C(=C[C@H](O)[C@@H](O)[C@H]2O)c2cc3c(c(O)c21)OCO3 [NARCICLASINE]				0.045 µM (active)			0.045 µM (active)		0.045 µM (active)		0.045 µM (active)				0.045 µM (active)	0.045 µM (active)	0.045 µM (active)	0.045 µM (active)	0.045 µM (active)	0.0535 µM (active)
C=CCN1C[C@H](C)N([C@H](c2ccc(C(=O)N(CC)CC)cc2)c2cccc(OC)c2)C[C@H]1C [SNC-80]	31.8 µM (inactive)	> 100 µM (inactive)	35.6 µM (inactive)	39.4 µM (inactive)	17 µM (inactive)	77.8 µM (inactive)	62.2 µM (inactive)	26 µM (inactive)		48 µM (inactive)	27.5 µM (inactive)	39.5 µM (inactive)	36.3 µM (inactive)							
